# According to patent US20100242341A1, “CORROSION AND MICROBIAL CONTROL IN HYDROCARBONACEOUS COMPOSITIONS” (priority 2007, published 2010):
# Experiments:
# Assay type in all cases: cell-based
# [1] = tested on: Hormoconis resinae ATCC# 20495; experiment: Microbial resistance of fuel, plate count
# Experimental: (§1) Bacteria. Pseudomonas aeruginosa ATCC# 33988, Yeast: Yarrowia tropicalis ATCC# 48138, and Mold: Hormoconis resinae ATCC# 20495, are sub cultured in Bushnell-Haas broth, and used for the mixed inoculum. The organism concentrations in the mixed inoculum are as follows: Ps. aeruginosa-4.8×10^8 cfu/mL; Y. tropicalis-2.2×10^7 cfu/mL; H. resinae-6.3×10^7 cfu/mL
# (§2) Testing is carried out in glass bottles with bakelite screw tops for four weeks. For each fuel sample, the aminoalcohol and then the biocide when present are added at the desired loadings to 130 mL of either diesel or biodiesel fuel with agitation for 5 min. Bushnell-Haas broth (24 mL) is added as the aqueous phase below the diesel fuel. One mL of the mixed inoculum is added. The samples are mixed weekly by turning the bottle upside down 5 times. The organism count listed for day 0 represents the initial organism populations detected in the water bottom after mixing the water bottom and the fuel.
# (§3) Microbial survival is measured using the plate count method. Tryptic soy agar is used for Pseudomonas aeruginosa, and Sabouraud dextrose agar with 0.5 ug/ml gentamycin for Yarrowia tropicalis, and bacteriological grade agar 1.5%, with 0.01% potassium tellurite for Hormoconis resinae. Bacteria are incubated at 37° C. for 48 hours, and fungi at 25° C. for 5-7 days.
# [2] = tested on: Yarrowia tropicalis ATCC# 48138; experiment: Microbial resistance of fuel, plate count
# Experimental: as §1, §2, §3
# [3] = tested on: Pseudomonas aeruginosa ATCC# 33988; experiment: Microbial resistance of fuel, plate count
# Experimental: as §1, §2, §3
# [4] = tested on: mixed inoculum (Ps. aeruginosa, Y. tropicalis, H. resinae); experiment: Microbial resistance of fuel, mixed inoculum (overall statements); conditions: diesel fuel
# Experimental: as §1, §2, §3
# [5] = diesel, aminoalcohol 1500 ppm, Day 0
# [6] = diesel, aminoalcohol 1500 ppm, Wk 1
# [7] = diesel, aminoalcohol 1500 ppm, Wk 2
# [8] = diesel, aminoalcohol 1500 ppm, Wk 3
# [9] = diesel, aminoalcohol 1500 ppm, Wk 4
# [10] = diesel, aminoalcohol 3000 ppm, Day 0
# [11] = diesel, aminoalcohol 3000 ppm, Wk 1
# [12] = diesel, aminoalcohol 3000 ppm, Wk 2
# [13] = diesel, aminoalcohol 3000 ppm, Wk 3
# [14] = diesel, aminoalcohol 3000 ppm, Wk 4
# [15] = biodiesel, 3A40 1500 ppm, Week 1
# [16] = biodiesel, 3A40 1500 ppm, Week 2
# [17] = biodiesel, 3A40 1500 ppm, Week 3
# [18] = biodiesel, 3A40 1500 ppm, Week 4
# [19] = biodiesel, 3A40 3000 ppm, Week 1
# [20] = biodiesel, 3A40 3000 ppm, Week 2
# [21] = biodiesel, 3A40 3000 ppm, Week 3
# [22] = biodiesel, 3A40 3000 ppm, Week 4
structure (smiles),measurement,setting,value
"CC(C)(N)CO [AMP, 2-Amino-2-methyl-1-propanol, reference compound]",H. resinae count,[1]; [5],4.2E5
same,H. resinae count,[1]; [6],3.0E5
same,H. resinae count,[1]; [7],6.4E5
same,H. resinae count,[1]; [8],7.4E5
same,H. resinae count,[1]; [9],1.8E6
same,H. resinae count,[1]; [10],4.2E5
same,H. resinae count,[1]; [11],1.2E5
same,H. resinae count,[1]; [12],4.5E5
same,H. resinae count,[1]; [13],5.8E5
same,H. resinae count,[1]; [14],3.3E6
same,Y. tropicalis count,[2]; [5],3.3E5
same,Y. tropicalis count,[2]; [6],1.3E5
same,Y. tropicalis count,[2]; [7],7.2E5
same,Y. tropicalis count,[2]; [8],1.3E6
same,Y. tropicalis count,[2]; [9],7.0E6
same,Y. tropicalis count,[2]; [10],3.3E5
same,Y. tropicalis count,[2]; [11],9.0E4
same,Y. tropicalis count,[2]; [12],2.3E5
same,Y. tropicalis count,[2]; [13],5.2E5
same,Y. tropicalis count,[2]; [14],4.3E6
same,Ps. aeruginosa count,[3]; [5],1.4E6
same,Ps. aeruginosa count,[3]; [6],8.7E5
same,Ps. aeruginosa count,[3]; [7],2.3E6
same,Ps. aeruginosa count,[3]; [8],4.4E6
same,Ps. aeruginosa count,[3]; [9],1.2E7
same,Ps. aeruginosa count,[3]; [10],1.4E6
same,Ps. aeruginosa count,[3]; [11],2.2E6
same,Ps. aeruginosa count,[3]; [12],4.0E6
same,Ps. aeruginosa count,[3]; [13],6.0E6
same,Ps. aeruginosa count,[3]; [14],4.2E7
"CCCCC(O)C(N)CC (centres unmarked) [Example 3A4O, 3-amino-4-octanol]",synergy with biocide,[4]; with FUELSAVER (FIG. 1),particularly synergistic
same,synergy with biocide,[4]; with Kathon (CMIT/MIT) (FIG. 2),more evident early on in the testing and then appears to taper off with time
same,synergy with biocide,[4]; with the three biocides evaluated,"Synergy, however, is observed"
same,H. resinae count,[1]; [15],<1.0E2
same,H. resinae count,[1]; [16],<1.0E2
same,H. resinae count,[1]; [17],<1.0E2
same,H. resinae count,[1]; [18],<1.0E2
same,H. resinae count,[1]; [19],<1.0E2
same,H. resinae count,[1]; [20],<1.0E2
same,H. resinae count,[1]; [21],<1.0E2
same,H. resinae count,[1]; [22],<1.0E2
same,H. resinae count,[1]; [5],4.2E5
same,H. resinae count,[1]; [6],2.7E5
same,H. resinae count,[1]; [7],3.8E5
same,H. resinae count,[1]; [8],7.7E5
same,H. resinae count,[1]; [9],4.4E6
same,H. resinae count,[1]; [10],4.2E5
same,H. resinae count,[1]; [11],3.5E5
same,H. resinae count,[1]; [12],6.7E5
same,H. resinae count,[1]; [13],8.2E5
same,H. resinae count,[1]; [14],6.0E6
same,Y. tropicalis count,[2]; [15],<1.0E2
same,Y. tropicalis count,[2]; [16],<1.0E2
same,Y. tropicalis count,[2]; [17],<1.0E2
same,Y. tropicalis count,[2]; [18],<1.0E2
same,Y. tropicalis count,[2]; [19],<1.0E2
same,Y. tropicalis count,[2]; [20],<1.0E2
same,Y. tropicalis count,[2]; [21],<1.0E2
same,Y. tropicalis count,[2]; [22],<1.0E2
same,synergy with biocide,"[2]; diesel fuel, with BIT, Y. tropicalis",evident
same,Y. tropicalis count,[2]; [5],3.3E5
same,Y. tropicalis count,[2]; [6],1.1E5
same,Y. tropicalis count,[2]; [7],8.0E5
same,Y. tropicalis count,[2]; [8],2.2E6
same,Y. tropicalis count,[2]; [9],8.3E6
same,Y. tropicalis count,[2]; [10],3.3E5
same,Y. tropicalis count,[2]; [11],2.0E5
same,Y. tropicalis count,[2]; [12],6.3E5
same,Y. tropicalis count,[2]; [13],3.0E6
same,Y. tropicalis count,[2]; [14],1.2E7
same,Ps. aeruginosa count,[3]; [15],<1.0E2
same,Ps. aeruginosa count,[3]; [16],<1.0E2
same,Ps. aeruginosa count,[3]; [17],<1.0E2
same,Ps. aeruginosa count,[3]; [18],<1.0E2
same,Ps. aeruginosa count,[3]; [19],<1.0E2
same,Ps. aeruginosa count,[3]; [20],<1.0E2
same,Ps. aeruginosa count,[3]; [21],<1.0E2
same,Ps. aeruginosa count,[3]; [22],<1.0E2
same,synergy with biocide,"[3]; diesel fuel, with BIT, against Ps. Aeruginosa (FIG. 3)",not significant
same,Ps. aeruginosa count,[3]; [5],1.4E6
same,Ps. aeruginosa count,[3]; [6],1.7E6
same,Ps. aeruginosa count,[3]; [7],4.2E6
same,Ps. aeruginosa count,[3]; [8],7.3E6
same,Ps. aeruginosa count,[3]; [9],4.8E7
same,Ps. aeruginosa count,[3]; [10],1.4E6
same,Ps. aeruginosa count,[3]; [11],8.7E5
same,Ps. aeruginosa count,[3]; [12],2.0E6
same,Ps. aeruginosa count,[3]; [13],5.7E6
same,Ps. aeruginosa count,[3]; [14],2.3E7
